Data: US20240319202A1, “METHOD FOR EVALUATING AGGREGATION STATE OF AGGREGATIVE PROTEIN” (HAMAMATSU PHOTONICS K.K., priority 2023, published 2024)

How the values were obtained:
lysozyme = biological target: T1, lysozyme (Gallus gallus, UniProt P00698); assay: Evaluation of aggregation state of heat-denatured lysozyme using light-absorption/fluorescence characteristics of a xanthene dye as index; conditions: lysozyme 7 μM, dye 1 μM, heat-stirred at 60° C.
T1 construct: purchased FUJIFILM Wako Pure Chemical Corporation
T1 sequence (P00698 19-147): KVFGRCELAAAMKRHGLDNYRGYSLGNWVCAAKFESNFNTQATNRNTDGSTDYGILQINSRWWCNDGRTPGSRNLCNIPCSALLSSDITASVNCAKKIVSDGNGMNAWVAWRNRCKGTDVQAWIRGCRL
Protocol: 40 mg of lysozyme (manufactured by FUJIFILM Wako Pure Chemical Corporation) was added to 2 mL of an aqueous solution of 25 mM of hydrochloric acid and 100 mM of sodium chloride, and dissolved by being left to stand. The obtained lysozyme solution was heat-stirred at 200 rpm at 60° C. to cause heat denaturation of the lysozyme, thereby starting the aggregation reaction of the lysozyme. At 0, 10, 20, 25, 30, 35, 40, 45, 50, 60, 70, 80, and 90 minutes after starting heat-stirring, each of 100 μL of the lysozyme solution was extracted and ice-cooled. The ice-cooled lysozyme solution, and rose bengal (manufactured by FUJIFILM Wako Pure Chemical Corporation) were added to distilled water such that final concentrations were each 7 μM and 1 μM. The obtained solution was put in a spectroscopic measurement cell to measure the light-absorption/fluorescence characteristics. The excitation wavelength in fluorescence measurement was 530 nm.
Sample preparation and light absorption and fluorescence measurement were performed in the same manner as in Example 1 except that eosin Y (manufactured by FUJIFILM Wako Pure Chemical Corporation) was used instead of rose bengal as the xanthene dye, and that the excitation wavelength in fluorescence measurement was set to 500 nm. […]

[1] = biological target: T2, horseradish peroxidase (HRP) (Armoracia rusticana, UniProt P00433); assay: Evaluation of aggregation state of heat-denatured horseradish peroxidase using light-absorption/fluorescence characteristics of rose bengal as index; conditions: HRP 5 μM, dye 1 μM, heat-stirred at 70° C., PBS pH 7.4
T2 construct: purchased FUJIFILM Wako Pure Chemical Corporation
T2 sequence (P00433 31-338): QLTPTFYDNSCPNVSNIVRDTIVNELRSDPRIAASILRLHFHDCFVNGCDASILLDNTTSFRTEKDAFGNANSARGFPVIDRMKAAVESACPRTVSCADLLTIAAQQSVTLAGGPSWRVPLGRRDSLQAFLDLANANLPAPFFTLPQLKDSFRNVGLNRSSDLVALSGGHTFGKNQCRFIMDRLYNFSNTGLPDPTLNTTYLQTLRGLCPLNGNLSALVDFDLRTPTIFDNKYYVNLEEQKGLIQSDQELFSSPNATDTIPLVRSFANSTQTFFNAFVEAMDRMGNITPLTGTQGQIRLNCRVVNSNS
Protocol: 40 mg of horseradish peroxidase (HRP, manufactured by FUJIFILM Wako Pure Chemical Corporation) was added to 2 mL of phosphate buffered saline at pH 7.4, and dissolved by being left to stand. The obtained HRP solution was heat-stirred at 200 rpm at 70° C. to cause heat denaturation of the HRP, thereby starting the aggregation reaction of the HRP. At 0, 5, 10, 15, 20, 25, 30, 35, 40, 50, 60, 70, 80, and 90 minutes after starting heat-stirring, each of 100 μL of the HRP solution was extracted and ice-cooled. The ice-cooled HRP solution, and rose bengal (manufactured by FUJIFILM Wako Pure Chemical Corporation) were added to distilled water such that final concentrations were each 5 μM and 1 μM. The obtained solution was put in a spectroscopic measurement cell to measure the light-absorption/fluorescence characteristics. The excitation wavelength in fluorescence measurement was 530 nm.

Compound	shape of the absorption spectra, maximum absorption wavelength and maximum absorbance versus heat denaturation time (lysozyme)	heat denaturation time at the minimum point of maximum absorbance (decreasing, thereafter increasing) ([1]; HRP absorption subtracted)	heat denaturation time at the minimum point of fluorescence intensity at around 570 nm and maximum fluorescence intensity (decreasing, thereafter increasing) ([1]; excitation 530 nm)
O.O=C([O-])c1ccccc1-c1c2cc(I)c(=O)c(I)c-2oc2c(I)c([O-])c(I)cc12.[Na+].[Na+] [erythrosin B]	changed depending on a heat denaturation time		
O=C(O)c1c(Cl)c(Cl)c(Cl)c(Cl)c1-c1c2cc(I)c(=O)c(I)c-2oc2c(I)c(O)c(I)cc12 [rose bengal]		around 20 minutes	around 20 minutes
